Data set [1] can be described thus: Plasma pharmacokinetics of 17-AAG and 17-AG in the open-label dose escalating trial in MM patients. As for the experimental part:
The total number of PK samples collected was approximately 110 mL of whole blood (7-8 tablespoons). If a patient experienced a potentially drug-related SAE, additional PK samples were collected. Blood was drawn from the contralateral arm to the infusion site using an indwelling catheter to avoid multiple needle sticks. […] The blood tube was inverted several times, and the tube placed in wet ice immediately pending separation of the plasma. If a catheter was used for blood collection, the fluid in the catheter was completely withdrawn prior to each sample collection and discarded. Plasma samples were kept on wet ice during collection and centrifugation. Plasma samples were split into two cryovials prior to freezing at −70° C.
The PK analysis was performed as follows. […] PK parameters were calculated on plasma concentration time data by non-compartmental analysis using Kinetica version 4.3 software (Innaphase, Champs sur Marne, France). AUC was calculated by the mixed log-linear rule: the linear rule was applied to the range where concentration was ascending and the log-linear rule was applied to the range where the concentration was descending. AUClast is the area from t=0 to tlast, the last sampling time. AUCextra is the extrapolated area from AUClast to infinity and AUCtotal=AUClast+AUCextra and is also named AUC0-∞ area under the concentration-time curve from time zero to infinity. The terminal rate constant λz was calculated on at least three points on the elimination curve with values greater than the lower limit of quantitation. […] Table 5 lists the areas, Cmax, and half-life for the metabolite 17-AG (mean±one standard deviation). […] There was no dose dependency for half-life, clearance or distributive volumes for these dose administrations.

The nature of data set [2]: Cellular assays, relative potency of 17-AAG and 17-AG. The class given is cell-based. Conditions: 17-AAG versus 17-AG.
For data set [3] the following is noted: patients treated at 56 mg/m^2 17-AAG; cited from earlier work.

Each structure is given as a SMILES string.

In general, half-life refers to how long it takes for the measured level to halve. As to `CO[C@H]1/C=C\C=C(/C)C(=O)NC2=CC(=O)C(N)=C(C[C@@H](C)C[C@H](OC)[C@H](O)[C@@H](C)/C=C(\C)[C@@H]1OC(N)=O)C2=O` [17-AG, 17-aminogeldanamycin], the “time post infusion from which plasma level of 17-AG exceeded the parent drug” value in data set [1] (220 mg/m^2 cohort) is given as “approximately 7 hours”. In addition, in data set [1] (17 patients, first vs fourth infusion), the “change of AUCtotal between Day 1 and Day 11” value was “no pattern of increase or decrease”. Besides, in data set [1] (150-340 mg/m^2 17-AAG), the “dose proportionality of Cmax” value is given as “did not increased in a dose proportional manner”. For the same compound, the “time post infusion from which plasma level of 17-AG exceeded the parent drug” value in data set [1] (150 and 275 mg/m^2 cohorts) is “approximately 3 hours”. In data set [1] (human, plasma, intravenous), this compound returned a half-life of 4.6 to 5.4 h. The “relative potency in cellular assays” value in data set [2] was “equipotent”. Further, in data set [3], the Vz is 203 L/m^2 and the clearance was 30.8 L/h/m^2.

The values above are taken from US7691392B2 (Kosan Biosciences Incorporated, priority 2005, dated 2010).
